In patent publication US5010102A, “Anti-ulcer 5-(2-substituted ethenyl)-3(2H)-furanones” (American Home Products Corp., priority 1990, dated 1991) one finds inhibition in vivo and ED50 data, which are given here for 28 compounds.

The term ED50 denotes the dose at which the effect has come halfway, by size or by number of responders.

One assay has as its system gastric mucosal lesions produced by ethanol. In words: prevention of gastric mucosal lesions produced by ethanol in rats (cytoprotective/anti-ulcer, Robert et al.). In kind it is in vivo. Particulars: Rattus norvegicus; 10 mg/kg, oral, usually 1 hour before ethanol; male Sprague-Dawley rats; read-out: percentage inhibition of lesion formation. Here is the method:
The rats were placed in individual cages and denied water 2 hours or more before testing. At a fixed time before administration of ethanol (usually 1 hour), the animals were orally administered either the test compound or its water-carboxymethylcellulose vehicle. Ethanol was then administered orally at a dose of 1 mL per animal. One hour after administration of the ethanol, the animals were sacrificed and their stomachs removed, cut along the greater curvature and flushed clean with tap water. Macroscopic lesions on the gastric mucosa were graded from 0-3 based upon the absence of lesions to the presence of lesions which approximate 6 millimeters in length. Comparison of the treated group with the control group permits expression of the results as percentage inhibition of lesion formation as a direct measure of cytoprotection. […] The results of these studies are given at the end of each example illustrating the preparation of the tested compound, supra, as the percent inhibition or ED50 where the latter value was determined.
`CC1(C)OC(/C=C/c2ccoc2)=CC1=O` [Example 25, 5-[2-(3-Furanyl)ethenyl]-2,2-dimethyl-3(2H)-furanone]: the inhibition in vivo at 10 mg/kg came to 35%.
`CC1(c2ccc(F)cc2)OC(/C=C/c2ccsc2)=CC1=O` (stereo not drawn) [Example 33, 2-(4-Fluorophenyl)-2-methyl-5-[2-(3-thienyl)ethenyl]-3(2H)-furanone]: the inhibition in vivo at 10 mg/kg came to 22%.
Same read-out and setting: the value for `CC1(C)OC(/C=C/c2cc3ccccc3s2)=CC1=O` [Example 24, 5-[2-(Benzo[b]thien-2-yl)ethenyl]-2,2-dimethyl-3(2H)-furanone] was 17%; that for `CC1(c2ccccc2)OC(/C=C/c2ccc(C#N)cc2)=CC1=O` (stereo not drawn) [Example 29, 4-[2-[2,3-Dihydro-2-methyl-3-oxo-2-phenyl-5-furanyl]ethenyl]benzonitrile] was 4%.
Same read-out and setting: then `CC1(c2ccc(F)cc2)OC(/C=C/c2ccc(C#N)cc2)=CC1=O` (stereo not drawn) [Example 31, 4-[2-[2,3-Dihydro-2-(4-fluorophenyl)-2-methyl-3-oxo-5-furanyl]ethenyl]benzonitrile], with 1%.
Still for that read-out and setting: then `Cn1cccc1/C=C/C1=CC(=O)C(C)(C)O1` [Example 16, 2,2-Dimethyl-5-[2-(1-methyl-2-pyrrolyl)ethenyl]-3(2H)-furanone], with 32%.
For the compound `CC1(c2ccc(F)cc2)OC(/C=C/c2ccccn2)=CC1=O` (stereo not drawn) [Example 32, 2-Methyl-2-(4-fluorophenyl)-5-[2-(2-pyridinyl)ethenyl]-3(2H)-furanone], the inhibition in vivo at 10 mg/kg was determined as 92%.
Take `CC1(c2ccccc2)OC(/C=C/c2ccncc2)=CC1=O` (stereo not drawn) [Example 27, 2-Methyl-2-phenyl-5-[2-(4-pyridinyl)ethenyl]-3(2H)-furanone]: the inhibition in vivo at 10 mg/kg amounted to 44%.
Same read-out and setting: then `CC1(C)OC(/C=C/c2cccs2)=CC1=O` [Example 23, 2,2-Dimethyl-5-[2-(2-thienyl)ethenyl]-3(2H)-furanone], with 1%; and `CC1(C)OC(/C=C/c2cnccn2)=CC1=O` [Example 21, 2,2-Dimethyl-5-[2-(2-pyrazinyl)ethenyl]-3(2H)-furanone], with 56%.

Still in this assay, the particulars now being: Rattus norvegicus; 25 mg/kg, oral, usually 1 hour before ethanol; male Sprague-Dawley rats; read-out: percentage inhibition of lesion formation.
As to `CC1(C)OC(/C=C/c2ccc(F)cc2F)=CC1=O` [Example 3, 5-[2-(2,4-Difluorophenyl)ethenyl]-2,2-dimethyl-3(2H)-furanone], the inhibition in vivo at 25 mg/kg turned out to be 52%.
On the same count and under the same terms, then `COc1cc(/C=C/C2=CC(=O)C(C)(C)O2)cc(OC)c1OC` [Example 1, 2,2-Dimethyl-5-[2-(3,4,5-trimethoxyphenyl)ethenyl]-3(2H)-furanone], with 81%; and `CC1(C)OC(/C=C/c2ccc(S(C)(=O)=O)cc2)=CC1=O` [Example 13, 2,2-Dimethyl-5-[2-[4-(methylsulfonyl)phenyl]ethenyl]-3(2H)-furanone], with 56%; and `CC1(C)OC(/C=C/c2ccc(F)c(F)c2)=CC1=O` [Example 4, 5-[2-(3,4-Difluorophenyl)ethenyl]-2,2-dimethyl-3(2H)-furanone], with 47%.
Still for that read-out and setting: the value for `CSc1ccc(/C=C/C2=CC(=O)C(C)(C)O2)cc1` [Example 12, (E)-2,2-Dimethyl-5-[2-[4-(methylthio)phenyl]ethenyl]-3(2H)-furanone] was 5%.
On the same count and under the same terms, then `CC1(C)OC(/C=C/c2ccc(C(F)(F)F)cc2)=CC1=O` [Example 11, 2,2-Dimethyl-5-[2-[4-(trifluoromethyl)phenyl]ethenyl]-3(2H)-furanone], with 30%; and `CC1(C)OC(/C=C/c2ccc(Br)cc2)=CC1=O` [Example 5, (E)-2,2-Dimethyl-5-[2-(4-bromophenyl)ethenyl]-3(2H)-furanone], with 63%.

The same assay, now with this note: Rattus norvegicus; oral, usually 1 hour before ethanol; male Sprague-Dawley rats; calculated from a series of dosage levels; read-out: ED50 (dose at which half the animals did not develop lesions significantly different from the control group).
As to `CC1(C)OC(/C=C/c2cc(Cl)cc(Cl)c2)=CC1=O` [Example 10, 5-[2-(3,5-Dichlorophenyl)ethenyl]-2,2-dimethyl-3(2H)-furanone], the ED50 was 9 mg/kg.
As to `CC1(C)OC(/C=C/c2ccsc2)=CC1=O` [Example 22, 2,2-Dimethyl-5-[2-(3-thienyl)ethenyl]-3(2H)-furanone], the ED50 is 4 mg/kg.
On to `CC1(C)OC(/C=C/c2ccc(C#N)cc2)=CC1=O` [Example 14, 4-[2-(2,3-Dihydro-2,2-dimethyl-3-oxo-5-furanyl)ethenyl]benzonitrile], for which the ED50 is 15 mg/kg.
The same measure, in the same setting: the value for `CC1(C)OC(/C=C/c2ccnc3ccccc23)=CC1=O` [Example 20, 5-[2-(4-Quinolinyl)ethenyl]-2,2-dimethyl-3(2H)-furanone] was 2.5 mg/kg; that for `CC1(C)OC(/C=C/c2ccc(S(C)(=O)=O)cc2)=CC1=O` [Example 13, 2,2-Dimethyl-5-[2-[4-(methylsulfonyl)phenyl]ethenyl]-3(2H)-furanone] was 10.6 mg/kg.
Still for that read-out and setting: the value for `CC1(c2ccccc2)OC(/C=C/c2ccccn2)=CC1=O` (stereo not drawn) [Example 28, 2-Methyl-2-phenyl-5-[2-(2-pyridinyl)ethenyl]-3(2H)-furanone] was 6 mg/kg.
Still for that read-out and setting: then `CC1(c2ccc(F)cc2)OC(/C=C/c2ccccn2)=CC1=O` (stereo not drawn) [Example 32, 2-Methyl-2-(4-fluorophenyl)-5-[2-(2-pyridinyl)ethenyl]-3(2H)-furanone], with 3.5 mg/kg.
For the compound `CC1(C)OC(/C=C/c2cccnc2)=CC1=O` [Example 19, 2,2-Dimethyl-5-[2-(3-pyridinyl)ethenyl]-3(2H)-furanone], the ED50 was 9.3 mg/kg.
On the same count and under the same terms, then `CC1(C)OC(/C=C/c2ccc(F)cc2)=CC1=O` [Example 2, 2,2-Dimethyl-5-[2-(4-fluorophenyl)ethenyl]-3(2H)-furanone], with 11 mg/kg; and `CC1(c2ccccc2)OC(/C=C/c2cccnc2)=CC1=O` (stereo not drawn) [Example 26, 2-Phenyl-2-methyl-5-[2-(3-pyridinyl)ethenyl]-3(2H)-furanone], with 5 mg/kg; and `CC1(C)OC(/C=C/c2ccccn2)=CC1=O` [Example 17, 2,2-Dimethyl-5-[2-(2-pyridinyl)ethenyl]-3(2H)-furanone], with 9 mg/kg.
Still for that read-out and setting: the value for `CC1(C)OC(/C=C/c2ccc(Cl)cc2)=CC1=O` [Example 6, 2,2-Dimethyl-5-[2-(4-chlorophenyl)ethenyl]-3(2H)-furanone] was 10.3 mg/kg; that for `CC1(C)OC(/C=C/c2ccncc2)=CC1=O` [Example 18, 2,2-Dimethyl-5-[2-(4-pyridinyl)ethenyl]-3(2H)-furanone] was 4 mg/kg.
